Measured values as given in patent publication US20240383881A1, “SYNTHETIC COMPOUND OF MYRICETIN AND NOBILETIN, AND PREPARATION METHOD THEREFOR” (The Second People's Hospital of Shenzhen (Shenzhen …, priority 2023, published 2024).

Columns and labels:
mice with hyperuricemia = experiment: yeast extract feed-induced hyperuricemia model in KM mice; type: in vivo, KunMing (KM) mice; settings: 30 mg/kg intragastric daily for 9 weeks; for serum UA levels vs model group: P<0.001, P<0.001, P<0.01; for serum creatinine level vs model group / serum urea nitrogen level vs model group: P<0.001; for serum urea nitrogen level vs model group: FIG. 2B; for kidney index vs model group: FIG. 3A, P<0.05 (synthetic compound), P<0.001 (nobiletin); for liver index vs model group: FIG. 3B, P<0.001, P<0.05, P<0.01; for renal pathological morphology (HE staining): renal tissue, x200
Description: Specific pathogen free (SPF) grade KunMing (KM) mice, male, aged 5-6 weeks, weighing 22-25 g, are provided by Medical Experimental Animal Center of Guangdong Province with an animal qualification certificate number: SCXK (Yue) 2022-0002. The mice are raised in plastic cages, with free diet and drinking water. The indoor temperature of the plastic cages is (22±2)° C., and a relative humidity is maintained at 55%±5%. The lights are turned on and turned off for 12 hours, respectively. After quarantine and adaptation for one week, relevant experiments are conducted. The experimental plan is reviewed and approved by the Animal Welfare Ethics Committee of Zhongke Industry Holdings (Shenzhen) Co., Ltd. (application number: 20220082), and the operation and process of animal experiments follow the “Guidelines for the use of experimental animals in teaching” of the Chinese Society of Experimental Animals. Customized dietary feeds: 15% of yeast extract feeds, in compliance with regulations of GB13078 and GB14924.2, are provided by Jiangsu Synergy Pharmaceutical Biotechnology Co., Ltd. Production license: Su Si Zheng (2019) 01008. After 2 weeks of adaptive feeding in the plastic cages, the SPF grade KM mice are randomly divided into five groups: normal group (Control), model group (Model), synthetic compound group (PJW), myricetin group (Myricetin), and nobiletin group (Nobiletin). The dosage of each individual test medicine group is 30 milligrams per kilogram (mg/kg), and the medicines are dissolved in a 0.5% carboxymethyl cellulose sodium solution with a gavage volume of 10 milliliters per kilogram (mL/kg). Except for the normal group fed with basic feed, the other groups are fed with 15% of the yeast extract feeds for modeling. The normal group and the model group are intragastrically administered an equal amount of physiological saline daily, and the other groups are intragastrically administered with the corresponding medicine daily for 9 weeks. At the end of the experiment, that is, at the end of the 9th week of administration, the KM mice are fasted for 12 hours, then the KM mice are anesthetized with the isoflurane to take off the eyeballs from the KM mice for blood collection, followed by placing the collected blood to stand in the room temperature for 1 hour. After the standing, the blood is centrifuged at 3500 revolutions per minute (rpm/min) for 15 minutes to obtain centrifuged solutions, respectively, then serums of the centrifuged solution are separated to detect the levels of the uric acid, the creatinine, the urea nitrogen. The KM mice are sacrificed by dislocation of cervical vertebra after collecting blood, livers and kidneys are dissected from the KM mice and weighed to calculate indexes of the livers and the kidneys, an organ index of the formula is as follows: organ index=organ weight (g)/body mass (g)×100%. Then the livers and the kidneys are quickly packed, one portion of the packed sample is fixed with 4% paraformaldehyde solution for HE staining, and the other portion of the packed sample is stored at −80° C. in a refrigerator for later use. The renal tissues fixed with 4% paraformaldehyde from the kidneys are taken to be dehydrated with ethanol, embedded in paraffin, and sliced. After staining with hematoxylin-eosin, the pathological changes of renal tissues are observed under an upright optical microscope. All data are statistically analyzed using a GraphPad Prism 7.00 software, and the data are presented as a mean value±a standard error (standard deviation±standard error of the mean abbreviated as SD±SEM). Multiple group comparisons are conducted using a one-way Analysis of Variance (ANOVA), and pairwise comparisons between groups are conducted using a Dunnett's test. P<0.05 indicates a statistically significant difference.

[1] = target: T1, organic anion transporter 4 (OAT4) (Homo sapiens, UniProt Q9NSA0); settings: OAT4 overexpressed monoclonal cell line; Wang Ze et al. 2019; read-out: half-maximal inhibitory concentration (IC50) on OAT4; cited from earlier work
T1 sequence (Q9NSA0 1-550): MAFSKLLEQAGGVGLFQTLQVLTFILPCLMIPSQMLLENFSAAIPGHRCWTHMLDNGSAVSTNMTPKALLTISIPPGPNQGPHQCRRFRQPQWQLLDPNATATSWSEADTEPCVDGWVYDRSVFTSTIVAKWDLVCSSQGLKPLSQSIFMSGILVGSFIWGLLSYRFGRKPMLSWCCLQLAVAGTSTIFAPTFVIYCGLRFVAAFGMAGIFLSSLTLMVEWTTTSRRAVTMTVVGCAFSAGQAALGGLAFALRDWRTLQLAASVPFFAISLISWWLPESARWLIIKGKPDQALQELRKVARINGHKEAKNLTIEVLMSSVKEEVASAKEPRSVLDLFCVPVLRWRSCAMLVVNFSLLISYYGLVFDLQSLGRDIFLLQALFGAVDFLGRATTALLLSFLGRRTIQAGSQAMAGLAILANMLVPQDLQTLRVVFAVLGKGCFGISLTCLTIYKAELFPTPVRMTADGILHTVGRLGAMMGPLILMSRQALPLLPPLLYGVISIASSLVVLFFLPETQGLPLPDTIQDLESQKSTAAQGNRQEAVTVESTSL

[2] = patients with hyperuricemia; Wang Yong et al. 2010; cited from earlier work

| Structure (SMILES) | serum UA effect compared with monomer groups (mice with hyperuricemia; FIG. 1) | serum UA levels vs model group (mice with hyperuricemia; FIG. 1) | effect on creatinine compared with monomer medicines (mice with hyperuricemia; FIG. 2A) | serum creatinine level vs model group (mice with hyperuricemia; FIG. 2A) | serum urea nitrogen level vs model group (mice with hyperuricemia) | kidney index vs model group (mice with hyperuricemia) | liver index vs model group (mice with hyperuricemia) | organ index effect compared with monomer groups (mice with hyperuricemia; FIGS. 3A-3B) | improvement of renal pathological morphology compared with monomer medicines (mice with hyperuricemia; HE staining, FIG. 4) | renal pathological morphology (HE staining) (mice with hyperuricemia; FIG. 4) | IC50 [1] [nM] | serum uric acid (UA) levels in patients [2] |
| --- | --- | --- | --- | --- | --- | --- | --- | --- | --- | --- | --- | --- |
| COc1cc(OC)c2c(=O)c(OCCCC(=O)Oc3c(-c4ccc(OC)c(OC)c4)oc4c(OC)c(OC)c(OC)c(OC)c4c3=O)c(-c3cc(OC)c(OC)c(OC)c3)oc2c1 [synthetic compound] | better than that of each monomer group | significantly reduced | better than that of monomer medicines | significantly reduced | significantly reduced | significantly reduced | significantly reduced | better than that of each monomer group | better than that of monomer medicines | improve renal injury | – | – |
| COc1ccc(-c2cc(=O)c3c(OC)c(OC)c(OC)c(OC)c3o2)cc1OC [nobiletin] | – | significantly reduced | – | significantly reduced | significantly reduced | significantly reduced | significantly reduced | – | – | improve renal injury | 556 | – |
| O=c1c(O)c(-c2cc(O)c(O)c(O)c2)oc2cc(O)cc(O)c12 [myricetin] | – | significantly reduced | – | significantly reduced | significantly reduced | – | significantly reduced | – | – | improve renal injury | – | significantly reduce |
